Results published in patent US6946480B2, “Glutaminyl based DPIV inhibitors” (priority 2002, dated 2005).

Tested on: diabetic Zucker rats
Experiment: Dose escalation study with oral glucose tolerance test in fatty Zucker rats
Type: in vivo, Zucker rats (fa/fa)
Details: for effect on glucose tolerance (OGTT): 2 g/kg glucose
Experimental: N=30 male Zucker rats (fa/fa), mean age 11 weeks (5-12 weeks), mean body weight 350 g (150-400 g), were purchased from Charles River (Sulzfeld, Germany). After delivery they were kept for >12 weeks until nearly all fatty Zucker rats had the characteristics of manifest diabetes mellitus. A group of N=8 animals were recruited for testing three escalating doses of glutaminyl pyrrolidine vs. placebo (saline).
Animals were single-caged under standardized conditions with controlled temperature (22±2° C.) on a 12/12 hours light/dark cycle (light on at 06:00 AM). Sterile standard pelleted chow (ssniff® Soest, Germany) and tap water acidified with HCl were allowed ad libitum.
Fatty Zucker rats of 24-31 weeks (mean: 25 weeks) age, adapted to the housing conditions, were well prepared for the study.
Catheters were implanted into the carotid artery of fatty Zucker rats under general anaesthesia (i.p. injection of 0.25 ml/kg b.w. Rompune® [2%], BayerVital, Germany and 0.5 ml/kg b.w. Ketamin 10, Atarost GmbH & Co., Twistringen, Germany). The animals were allowed to recover for one week. The catheters were flushed with heparin-saline (100 IU/ml) three times per week.
Placebo (1 ml saline, 0.154 mol/l) or escalating doses of glutaminyl pyrrolidine (5, 15 and 50 mg/kg b.w.) were administered to groups of N=8 fatty Zucker rats. 375 mg of glutaminyl pyrrolidine were dissolved in 1000 μl DMSO (E. Merck, Darmstadt; Germany [Dimethyl sulfoxide p.a.]). 10 ml saline were added and 1 ml aliquots, each containing 34.09 mg of glutaminyl pyrrolidine, were stored at −20° C. For preparation of the test substance, dose dependent aliquots were diluted in saline.
After overnight fasting, placebo or test substance were administered to the fatty Zucker rats via feeding tube orally (15 G, 75 mm; Fine Science Tools, Heidelberg, Germany) at −10 min An oral glucose tolerance test (OGTT) with 2 g/kg b.w. glucose (40% solution, B. Braun Melsungen, Melsungen, Germany) was administered at ±0 min via a second feeding tube. Venous blood samples from the tail veins were collected at −30 min, −15 min, ±0 min and at 5, 10, 15, 20, 30, 40, 60, 90 and 120 min into 20 μl glass capillaries, which were placed in standard tubes filled with 1 ml solution for blood glucose measurement.
Glucose levels were measured using the glucose oxidase procedure (Super G Glucose analyzer; Dr. Müller Gerätebau, Freital, Germany).
Statistical evaluations and graphics were performed with PRISM® 3.02 (GraphPad Software, Inc.). All parameters were analysed in a descriptive manner including mean and SD.
N=30 male Zucker rats (fa/fa), mean age 11 weeks (5-12 weeks), mean body weight 350 g (150-400 g), were purchased from Charles River (Sulzfeld, Germany). […]

In the case of `NC(=O)CC[C@H](N)C(=O)N1CCCC1` [glutaminyl pyrrolidine], the “effect on glucose tolerance (OGTT)” value (5 mg/kg b.w. oral) was “limited improvement of glucose tolerance”, the “effect on blood glucose levels over escalating doses (OGTT)” value (5 mg/kg, 15 mg/kg and 50 mg/kg b.w. oral) was “dose dependent lowering of elevated blood glucose levels” and the “effect on glucose tolerance (OGTT)” value (15 mg/kg b.w. oral) was “Significant lowering of elevated blood glucose levels”. For the same molecule, the “effect on glucose tolerance (OGTT)” value (50 mg/kg b.w. oral) was “Significant lowering of elevated blood glucose levels”.
